From ChEMBL document CHEMBL5108055, “Dual A1/A3 Adenosine Receptor Antagonists: Binding Kinetics and Structure-Activity Relationship Studies Using Mutagenesis and Alchemical Binding Free Energy Calculations” (J Med Chem, 2022)

Assays:
Adenosine receptor A3 [1] = biological target: T1, Adenosine receptor A3 (Homo sapiens, UniProt P0DMS8); assay: Binding affinity to wild type A3R (unknown origin) expressed in CHO-K1 cells assessed as equilibrium binding affinity constant by nanoBRET assay; assay type: cell-based, Flp-In-CHO
T1 sequence (P0DMS8 whole entry): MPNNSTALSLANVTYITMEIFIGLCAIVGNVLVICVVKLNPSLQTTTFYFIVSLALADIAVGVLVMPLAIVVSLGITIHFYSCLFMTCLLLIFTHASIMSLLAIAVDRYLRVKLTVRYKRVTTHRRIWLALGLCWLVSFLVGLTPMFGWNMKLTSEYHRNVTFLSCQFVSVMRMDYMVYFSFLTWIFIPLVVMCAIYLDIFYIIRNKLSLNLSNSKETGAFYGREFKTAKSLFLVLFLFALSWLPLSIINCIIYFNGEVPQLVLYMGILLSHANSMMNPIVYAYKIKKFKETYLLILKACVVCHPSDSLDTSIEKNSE

Adenosine receptor A3 [2] = biological target: T1, Adenosine receptor A3; assay: Binding affinity to Nluc-A3R (unknown origin) expressed in HEK293 cells by nanoBRET assay; assay type: cell-based
Adenosine receptor A3 [3] = biological target: T1, Adenosine receptor A3; assay: Binding affinity to wild type A3R (unknown origin) expressed in Flp-In-CHO cells assessed as dissociation constant by Schild analysis; assay type: cell-based
Adenosine receptor A3 [4] = biological target: T1, Adenosine receptor A3; assay: Antagonist activity at wild type A3R (unknown origin) expressed in Flp-In-CHO cells assessed as inhibition of NECA reduced forskolin stimulated cAMP accumulation incubated for 30 mins; assay type: functional, cell-based
Adenosine receptor A1 [5] = biological target: Adenosine receptor A1 (Homo sapiens, UniProt P30542, H251A); assay: Binding affinity to A1R H251 6.52A mutant (unknown origin) by saturation NanoBRET binding assay
Adenosine receptor A1 [6] = biological target: Adenosine receptor A1 (Homo sapiens, UniProt P30542, S267A); assay: Binding affinity to A1R S267 7.32A mutant (unknown origin) in by saturation NanoBRET binding assay
Adenosine receptor A1 [7] = biological target: T2, Adenosine receptor A1 (Homo sapiens, UniProt P30542); assay: Antagonist activity at wild type A1R (unknown origin) expressed in CHO-K1 cells assessed as inhibition of NECA reduced forskolin stimulated cAMP accumulation incubated for 30 mins; assay type: functional, cell-based
T2 sequence (P30542 whole entry): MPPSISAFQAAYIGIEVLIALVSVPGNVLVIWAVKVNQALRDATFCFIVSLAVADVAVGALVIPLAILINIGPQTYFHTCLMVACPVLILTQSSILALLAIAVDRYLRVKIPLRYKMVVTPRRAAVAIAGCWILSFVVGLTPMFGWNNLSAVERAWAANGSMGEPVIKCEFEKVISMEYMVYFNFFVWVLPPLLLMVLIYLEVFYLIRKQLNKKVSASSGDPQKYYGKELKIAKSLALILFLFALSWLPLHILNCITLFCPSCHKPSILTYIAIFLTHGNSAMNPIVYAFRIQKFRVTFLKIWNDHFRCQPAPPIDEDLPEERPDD

Adenosine receptor A1 [8] = biological target: Adenosine receptor A1 (Homo sapiens, UniProt P30542, E172A); assay: Binding affinity to A1R E172 5.30A mutant (unknown origin) by saturation NanoBRET binding assay
Adenosine receptor A1 [9] = biological target: T2, Adenosine receptor A1; assay: Binding affinity to wild type A1R (unknown origin) by saturation NanoBRET binding assay
Adenosine receptor A1 [10] = biological target: T2, Adenosine receptor A1; assay: Binding affinity to Nluc-A1R (unknown origin) expressed in HEK293 cells by nanoBRET assay; assay type: cell-based
Adenosine receptor A1 [11] = biological target: Adenosine receptor A1 (Homo sapiens, UniProt P30542, L250A)
Description: Binding affinity to A1R L250 6.51A mutant (unknown origin) by saturation NanoBRET binding assay

Adenosine receptor A1 [12] = biological target: T2, Adenosine receptor A1; assay: Binding affinity to wild type A1R (unknown origin) expressed in CHO-K1 cells assessed as equilibrium binding affinity constant by nanoBRET assay; assay type: cell-based
[13] = biological target: T3, Adenosine receptor A1 (Homo sapiens) (UniProt P30542); assay: Displacement of [3H]-DPCPX from human adenosine A1R expressed in CHO cells membrane assessed as dissociation constant (koff) preincubated for 1 hr followed by compound addition and measured after 1 hr; assay type: cell membranes; conditions: filed as antagonist
T3 sequence (whole entry): T2 sequence (P30542 whole entry)

[14] = biological target: T3, Adenosine receptor A1 (Homo sapiens); assay: Displacement of [3H]-DPCPX from human adenosine A1R expressed in CHO cells membrane assessed as association constant (kon) incubated for 45 mins; assay type: cell membranes; conditions: filed as antagonist
[15] = biological target: T3, Adenosine receptor A1 (Homo sapiens); assay: Displacement of [3H]-DPCPX from human adenosine A1R expressed in CHO cells membrane assessed as residence time; assay type: cell membranes; conditions: filed as antagonist
Adenosine receptor A1 [16] = biological target: T2, Adenosine receptor A1; assay: Displacement of [3H]-DPCPX from human adenosine A1R expressed in CHO cells membrane incubated for 1 hr; assay type: cell membranes
[17] = Binding affinity to A1R Y271 7.36A mutant (unknown origin) by saturation NanoBRET binding assay; design: species or system Homo sapiens
Adenosine receptor A3 [18] = biological target: T1, Adenosine receptor A3; assay: Binding affinity to human adenosine A3R expressed in CHO cells membrane; assay type: cell membranes
[19] = biological target: T4, Adenosine receptor A3 (Homo sapiens) (UniProt P0DMS8); assay: Binding affinity to human adenosine A3R expressed in CHO cells membrane assessed as residence time; assay type: cell membranes; conditions: filed as antagonist
T4 sequence (whole entry): T1 sequence (P0DMS8 whole entry)

[20] = biological target: T4, Adenosine receptor A3 (Homo sapiens); assay: Binding affinity to human adenosine A3R expressed in CHO cells membrane assessed as binding constant (kon); assay type: cell membranes; conditions: filed as antagonist
[21] = biological target: T4, Adenosine receptor A3 (Homo sapiens); assay: Binding affinity to human adenosine A3R expressed in CHO cells membrane assessed as dissociation constant (koff); assay type: cell membranes; conditions: filed as antagonist
[22] = biological target: T4, Adenosine receptor A3 (Homo sapiens); assay: Binding affinity to N-terminal Nano-luc tagged human adenosine A3R expressed in HEK293 cells membrane assessed as residence time; assay type: cell membranes; conditions: filed as antagonist
Adenosine receptor A3 [23] = biological target: T1, Adenosine receptor A3; assay: Binding affinity to N-terminal Nano-luc tagged human adenosine A3R expressed in HEK293 cells membrane; assay type: cell membranes
[24] = biological target: T4, Adenosine receptor A3 (Homo sapiens); assay: Binding affinity to N-terminal Nano-luc tagged human adenosine A3R expressed in HEK293 cells membrane assessed as association constant (kon); assay type: cell membranes; conditions: filed as antagonist
[25] = biological target: T4, Adenosine receptor A3 (Homo sapiens); assay: Binding affinity to N-terminal Nano-luc tagged human adenosine A3R expressed in HEK293 cells membrane assessed as dissociation constant (koff); assay type: cell membranes; conditions: filed as antagonist
Adenosine receptor A1 [26] = biological target: T2, Adenosine receptor A1; assay: Binding affinity to human adenosine A1R expressed in CHO cells membrane; assay type: cell membranes

Chain of Adenosine receptor A1 (Homo sapiens, UniProt P30542, H251A) (P30542 whole entry H251A): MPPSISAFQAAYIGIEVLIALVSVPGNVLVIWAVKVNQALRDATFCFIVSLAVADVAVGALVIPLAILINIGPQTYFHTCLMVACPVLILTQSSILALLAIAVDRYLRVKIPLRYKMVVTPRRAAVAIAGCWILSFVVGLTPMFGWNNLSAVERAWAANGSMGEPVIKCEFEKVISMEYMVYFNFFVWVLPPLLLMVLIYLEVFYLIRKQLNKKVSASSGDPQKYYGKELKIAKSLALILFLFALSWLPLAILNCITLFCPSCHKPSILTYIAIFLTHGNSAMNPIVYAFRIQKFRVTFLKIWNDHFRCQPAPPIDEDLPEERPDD
Chain of Adenosine receptor A1 (Homo sapiens, UniProt P30542, S267A) (P30542 whole entry S267A): as the sequence (P30542 whole entry H251A) above, with A251H, S267A counted along it
Chain of Adenosine receptor A1 (Homo sapiens, UniProt P30542, L250A) (P30542 whole entry L250A): as the sequence (P30542 whole entry H251A) above, with L250A, A251H counted along it
Chain of Adenosine receptor A1 (Homo sapiens, UniProt P30542, E172A) (P30542 whole entry E172A): as the sequence (P30542 whole entry H251A) above, with E172A, A251H counted along it

SMILES | Ki (Adenosine receptor A3 [1]) [nM] | Kd (Adenosine receptor A3 [2]) [nM] | Kd (Adenosine receptor A3 [3]) [nM] | IC50 (Adenosine receptor A3 [4]) [nM] | IC50 (Adenosine receptor A1 [7]) [nM] | Kd (Adenosine receptor A1 [10]) [nM] | Ki (Adenosine receptor A1 [12]) [nM] | also measured
COc1cc(Nc2nc(Cl)cc3c(-c4ccccc4)n[nH]c23)cc(OC)c1OC | 55 | 85.1 | 89.1 | 12.3 |  |  |  | 
COc1cc(Nc2nc(C#N)cc3c(-c4ccccc4)n[nH]c23)cc(OC)c1OC |  |  |  |  | 200 | 1.74 | 4.37 | Kd (Adenosine receptor A1 [5]; read-out: pKd (converted)): 9.33 nM; Kd (Adenosine receptor A1 [6]; read-out: pKd (converted)): 7.94 nM; Kd (Adenosine receptor A1 [8]; read-out: pKd (converted)): 23.4 nM; Kd (Adenosine receptor A1 [9]): 13.5 nM; Kd (Adenosine receptor A1 [11]): 3.63 nM
Cn1nc(NC(=O)CNc2ccccc2)c2cc(Nc3ccccc3)ncc21 |  |  |  |  | 2.63 | 398 | 295 | 
COc1cc(Nc2nc(C#N)cc3cn[nH]c23)cc(OC)c1OC |  |  |  |  | 10.2 | 102 | 229 | 
N#Cc1c(N)nc(SCc2ncc[nH]2)c(C#N)c1-c1ccc(O)cc1 |  |  |  |  |  |  |  | K [13]: 0.92 min⁻¹; K [14]: 2 10^8/M/min; TIME [15]: 0.0183 h; Kd (Adenosine receptor A1 [16]): 4.6 nM
CCCn1c(=O)c2[nH]c(-c3ccc(OCC(=O)NCCNC(=O)CCNC(=O)CCCCNC(=O)CCCCCNC(=O)COc4ccc(/C=C/C5=[N+]6C(=Cc7ccc(-c8cccs8)n7[B-]6(F)F)C=C5)cc4)cc3)nc2n(CCC)c1=O |  |  |  |  |  |  |  | Kd (Adenosine receptor A1 [5]; read-out: Kd): 145 nM; Kd (Adenosine receptor A1 [6]; read-out: Kd): 71 nM; Kd (Adenosine receptor A1 [8]; read-out: Kd): 116 nM; Kd [17]: 71.1 nM; Kd (Adenosine receptor A1 [11]): 158 nM
O=C(CNc1ccccc1)Nc1n[nH]c2cnc(Nc3ccccc3)cc12 | 0.115 | 355 | 490 | 3.02 | 6.92 | 282 | 363 | 
COc1cc(Nc2nccc3c(-c4ccccc4)n[nH]c23)cc(OC)c1OC | 100 | 74.1 | 251 | 5.13 |  |  |  | 
CCNC(=O)[C@H]1O[C@@H](n2cnc3c(N)ncnc32)[C@H](O)[C@@H]1O [NECA] |  |  |  |  |  |  |  | pKd [17]: 5.45
COc1cc(Nc2nc(CNCc3ccccc3)cc3c(-c4ccccc4)n[nH]c23)cc(OC)c1OC | 85.1 | 186 | 158 | 7.24 | 3.89 | 427 | 204 | 
COc1cc(Nc2nc(Cl)cc3c(C(C)C)n[nH]c23)cc(OC)c1OC | 631 |  | 550 | 2.82 | 5.01 | 282 | 288 | 
COc1cc(Nc2nc(C#N)cc3c(C(C)C)n[nH]c23)cc(OC)c1OC | 603 |  | 355 | 3.8 |  |  |  | 
COc1cc(Nc2nc(CN)cc3c(-c4ccccc4)n[nH]c23)cc(OC)c1OC | 132 | 257 | 257 | 4.9 | 22.9 | 40.7 | 22.9 | 
CC[C@@H]1CN2C(=O)N(C)C3N=C(c4ccccc4)NC3C2=N1 (some centres undefined) |  |  |  |  |  |  |  | Kd (Adenosine receptor A3 [18]): 0.46 nM; TIME [19]: 0.08 h; K [20]: 2.35 10^8/M/min; K [21]: 0.208 min⁻¹
COc1cccc(Cn2c(=O)n(CC3CC3)c(=O)c3c2nc2cc(OC)ccn23)c1 |  |  |  |  |  |  |  | TIME [22]: 2.8 h; Kd (Adenosine receptor A3 [23]): 9.11 nM; K [24]: 8.17 10^6/M/min; K [25]: 0.0065 min⁻¹
Cn1nc(NC(=O)c2ccccc2)c2cc(Nc3ccccc3)ncc21 | 234 |  | 170 | 6.76 | 5.01 | 851 | > 955 | 
CCCn1c(=O)[nH]c(=O)c2[nH]c(C3CCCC3)nc21 |  |  |  |  |  |  |  | Kd (Adenosine receptor A1 [26]): 1.5 nM
Cn1nc(NC(=O)Nc2ccccc2)c2ccnc(NC3CCCCC3)c21 | 64.6 |  | 302 | 4.27 | 1.41 |  | 1000 | 
N#Cc1cc2c(-c3ccccc3)n[nH]c2c(Nc2ccccc2)n1 | 43.7 | 26.3 | 17 | 60.3 | 13.5 | 61.7 | 214 | 
